Results from US20200207744A1, “DIMER COMPOUNDS, AND USE IN BINDING TOXIC REPEATS OF RNA” (EXPANSION THERAPEUTICS, INC., priority 2018, published 2020).

System: r(CUG)12-MBNL1 complex
Experiment: Small molecule inhibition of the r(CUG)12-MBNL1 complex measured by TR-FRET
Type: binding
Conditions: biotinylated r(CUG)12 80 nM, MBNL1-His6 60 nM
Description: Example 28: Small Molecule Inhibition of the r(CUG)12-MBNL1 Complex Measured by Time Resolved Fluorescence Resonance Energy Transfer (TR-FRET)
The in vitro activity of small molecules were assessed by measuring the inhibition of the r(CUG)12-MBNL1 complex using a TR-FRET assay previously reported by Chen et al Analytical and Bioanalytical Chemistry 2012, 402, 1889. Biotinylated r(CUG)12 was folded at 60° C. in 1× Folding Buffer (20 mM HEPES, pH 7.5, 100 mM KCl, and 10 mM NaCl) and slowly cooled to room temperature. The buffer was then adjusted to 1× TR-FRET Buffer (1× Folding Buffer supplemented with 2 mM MgCl2, 2 mM CaCl2, 5 mM DTT, 0.1% BSA, 0.05% Tween-20) and MBNL1-His6 was added. The final concentrations of RNA and MBNL1-His6 were 80 nM and 60 nM, respectively. Then dilutions of the small molecule were made in 1× TR-FRET buffer. The samples were equilibrated at room temperature for 15 min, after which 1 μL of antibody solution (1:1 mixture of 8.8 ng/μL Anti-His6-Tb and 800 nM streptavidin XL-665) was added. Samples were incubated at room temperature for 1 h, and then TR-FRET was measured using a Molecular Devices SpectraMax M5 plate reader using an excitation wavelength of 345 nm and a 420 nm cutoff. Controls for maximum TR-FRET (100% complex formation) contained 8 μL of 1× TR-FRET Buffer with RNA and protein and 1 μL water. Controls for minimum TR-FRET (no complex formation) contained 8 μL of 1× Assay Buffer, 1 μL water, and no RNA or protein.
To calculate the percent inhibition of complex formation, the ratio of fluorescence intensity at 545 nm and 665 nm in the presence of compound was compared to the ratio in the absence of small molecule (100% r(CUG)12-MBNL1 complex formation) and in the absence of RNA and protein (no complex formation). The resulting curves were fit to the following equation to determine IC50 values: […]
where y is ratio of fluorescence intensities at 545 nm and 665 nm (F545/F665), x is the concentration of small molecule, B is F545/F665 value at max FRET effect (solution has RNA and protein but no small molecule added); A is F545/F665 value at min FRET effect (solution has antibodies but no RNA, protein, or small molecule); and the IC50 is the concentration of small molecule where half of the protein is displaced by small molecule.

Compound	IC50 [µM]
3,3′-((2,2′-((ethane-1,2-diylbis(oxy))bis(2,1-phenylene))bis(1H-benzo[d]imidazole-6,2-diyl))bis(oxy))bis(N,N-dimethylpropan-1-amine) [Ex 12]	> 200
CN(C)CCCOc1ccc2nc(-c3ccccc3OCCOCCOCCOc3ccccc3-c3nc4ccc(O)cc4[nH]3)[nH]c2c1 [Ex 14b, 2-(2-(2-(2-(2-(2-(6-(3-(dimethylamino)propoxy)-1H-benzo[d]imidazole-2-yl)phenoxy)ethoxy)ethoxy)ethoxy)phenyl)-1H-benzo[d]imidazol-6-ol]	> 200
CN(C)CCCOc1ccc2nc(-c3ccccc3OCCOCCOCCOc3ccccc3-c3nc4ccc(OCCCN(C)C)cc4[nH]3)[nH]c2c1 [Ex 14a, 3,3′-((2,2′-((((ethane-1,2-diylbis(oxy))bis(ethane-2,1-diyl))bis(oxy))bis(2,1-phenylene))bis(1H-benzo[d]imidazole-6,2-diyl))bis(oxy))bis(N,N-dimethylpropan-1-amine)]	166
3,3′-((2,2′-(((oxybis(ethane-2,1-diyl))bis(oxy))bis(2,1-phenylene))bis(1H-benzo[d]imidazole-6,2-diyl))bis(oxy))bis(N,N-dimethylpropan-1-amine) [Ex 13]	188
CN(C)CCCOc1ccc2nc(-c3ccc(-c4nc5ccc(OCCCN(C)C)cc5[nH]4)c(OCCCCCCCCCCCCOc4cc(-c5nc6ccc(OCCCN(C)C)cc6[nH]5)ccc4-c4nc5ccc(OCCCN(C)C)cc5[nH]4)c3)[nH]c2c1 [Ex 20, 3,3′,3″,3′″-((((dodecane-1,12-diylbis(oxy))bis(benzene-2,1,4-triyl))tetrakis(1H-benzo[d]imidazole-2,5-diyl))tetrakis(oxy))tetrakis(N,N-dimethylpropan-1-amine)]	2.8
3,3′-((2,2′-(2-(3-((3-(2,5-bis(6-(3-(dimethylamino)propoxy)-1H-benzo[d]imidazol-2-yl)phenoxy)propyl)(methyl)amino)propoxy)-1,4-phenylene)bis(1H-benzo[d]imidazole-6,2-diyl))bis(oxy))bis(N,N-dimethylpropan-1-amine) [Ex 18]	0.72
